Data taken from paper PMC6145841 (Biochemistry, 2018).
pEC50: −log10 of the molar value. Square brackets hold non-standard residues; d marks the D form. Peptide text beside a SMILES is read from it.

How the values were obtained:
[1] = target: T1, ComD1 receptor (Streptococcus pneumoniae serotype 2, UniProt A0A0H2ZM50); experiment: Beta-galactosidase reporter dose response assay, group I strain D39pcomX::lacZ; type: cell-based
[2] = target: ComD2 receptor (Streptococcus pneumoniae serotype 4, UniProt A0A0H2US84); type: cell-based
[3] = target: T1, ComD1 receptor; settings: Table 1; ref [26]; cited from earlier work

Compound	pEC50 [1]	pEC50 [2]	activity against the ComD1 receptor (in words) [3]
CC[C@H](C)[C@H](NC(=O)[C@H](C)NC(=O)[C@H](C)NC(=O)[C@H](C)NC(=O)[C@H](CCCNC(=N)N)NC(=O)[C@H](CCSC)NC(=O)[C@@H](N)CCC(=O)O)C(=O)N[C@H](C(=O)N[C@@H](CC(C)C)C(=O)N[C@H](CC(=O)O)C(=O)N[C@@H](Cc1ccccc1)C(=O)N[C@@H](CC(C)C)C(=O)N[C@@H](Cc1ccccc1)C(=O)N[C@@H](C)C(=O)N[C@@H](CCCNC(=N)N)C(=O)N[C@@H](CCCCN)C(=O)N[C@@H](CCCCN)C(=O)O)[C@@H](C)CC [CSP2-I4AS5AR6Ad10L14A] (H-EMRAAAIIL[dD]FLFARKK-OH)	< 6.00	7.06	
EMALSKFFRDFILQRKK [CSP1-R3A]			complete loss of activity
